In patent publication US9937115B2, “Oral care compositions with improved flavor” (priority 2010, dated 2018):
Read-outs that look alike come from different tables or passages of the source.

Columns and labels:
TRPA1 receptor [1] = biological target: T1, TRPA1 receptor (Homo sapiens, UniProt O75762); test: cell-based; parameters: activation: dose or concentration left out as unconfirmed;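 for TRPA1 Pre-incubation: values above 100 mean more active than the control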
T1 construct: expressed in transfected cells; host or cells: HEK cell line
T1 sequence (O75762 whole entry): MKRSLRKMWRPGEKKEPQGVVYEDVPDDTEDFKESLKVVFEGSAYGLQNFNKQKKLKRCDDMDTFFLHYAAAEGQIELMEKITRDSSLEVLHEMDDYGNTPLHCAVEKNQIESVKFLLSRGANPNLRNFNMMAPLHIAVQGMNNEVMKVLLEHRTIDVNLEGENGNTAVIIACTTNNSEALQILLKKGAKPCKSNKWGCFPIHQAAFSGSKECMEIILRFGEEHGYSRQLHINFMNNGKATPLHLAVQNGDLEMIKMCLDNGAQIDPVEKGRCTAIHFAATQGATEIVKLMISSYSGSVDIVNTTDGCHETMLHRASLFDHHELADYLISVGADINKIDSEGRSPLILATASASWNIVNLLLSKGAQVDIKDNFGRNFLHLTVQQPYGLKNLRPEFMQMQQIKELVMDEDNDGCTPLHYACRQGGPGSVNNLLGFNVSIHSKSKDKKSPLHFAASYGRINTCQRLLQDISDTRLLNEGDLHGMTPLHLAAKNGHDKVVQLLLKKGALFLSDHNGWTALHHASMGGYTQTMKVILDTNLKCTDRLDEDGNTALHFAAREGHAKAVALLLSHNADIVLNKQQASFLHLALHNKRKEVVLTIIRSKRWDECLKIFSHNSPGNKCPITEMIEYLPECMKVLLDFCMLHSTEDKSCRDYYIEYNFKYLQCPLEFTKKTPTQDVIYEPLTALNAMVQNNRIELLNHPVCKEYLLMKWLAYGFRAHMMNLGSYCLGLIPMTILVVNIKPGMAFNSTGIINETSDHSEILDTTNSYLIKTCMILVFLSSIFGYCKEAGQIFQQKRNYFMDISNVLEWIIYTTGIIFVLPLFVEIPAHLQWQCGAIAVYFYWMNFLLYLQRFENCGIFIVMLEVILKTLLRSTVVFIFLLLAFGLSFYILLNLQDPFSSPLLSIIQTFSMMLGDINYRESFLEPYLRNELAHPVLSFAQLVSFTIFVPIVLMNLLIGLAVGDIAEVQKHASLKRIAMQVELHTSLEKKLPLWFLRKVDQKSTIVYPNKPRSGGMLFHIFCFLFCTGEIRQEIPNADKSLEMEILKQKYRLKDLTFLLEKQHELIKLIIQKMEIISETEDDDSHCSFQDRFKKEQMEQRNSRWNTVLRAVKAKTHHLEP
Experimental: The term “TRPA1 activator” as used herein refers to any component which at a concentration of 1 mM gives a calcium flux count of at least 1000 counts above the background level of calcium present in the cell according to the FLIPR method as discussed herein. The term “count” is defined as the change in fluorescence of the transfected cell lines due to the influx of calcium across the cell membrane, which reacts with the calcium sensitive dye present within the cells.
In order to select TRPA1 agonists that would be preferred for reducing off-tasting chemical components found in oral care compositions, calcium flux receptor activity on the TRPA1 was utilized as the criteria for selection of actives. With allyl isothiocyanate as the TRPA1 positive control, molecules that directly activated the TRPA1 receptor were screened in dimethylsulfoxide (DMSO). Pure molecules of each material were dissolved in DMSO at a concentration of 100 micormolar and then added to an HEK cell line containing the TRPA1 receptor. If they are TRPA1 agonists, they will cause a calcium flux in the cell which fluoresces and may then be measured using a FLIPR machine.

TRPA1 receptor [2] = biological target: T1, TRPA1 receptor; assay type: cell-based; settings: percentage of the control (allyl isothiocyanate) calcium count, material dissolved in DMSO at 100 micromolar, HEK cells with TRPA1
[3] = percentage of the control (allyl isothiocyanate) calcium count, material dissolved in DMSO at 100 micromolar, HEK cells with TRPA1, direct addition
[4] = HEK293, percentage of the control (allyl isothiocyanate) calcium count, material dissolved in DMSO at 100 micromolar, HEK cells with TRPA1, direct addition, read-out: TRPA1 Direct addition
[5] = HEK293, percentage of the control (allyl isothiocyanate) calcium count, material dissolved in DMSO at 100 micromolar, HEK cells with TRPA1, pre-incubation, read-out: TRPA1 Pre-incubation

| Compound | TRPA1 Direct addition (TRPA1 receptor [1]; [3]) [%] | TRPA1 Pre-incubation (TRPA1 receptor [2]) [%] | activation at 100 µM (TRPA1 receptor [1]; [4]) [%] | activation (TRPA1 receptor [1]; [5]) [%] | further results |
| --- | --- | --- | --- | --- | --- |
| CCCC(=O)OCc1ccc(OC)cc1 [Anisyl butyrate] | −0.03 | 112.61 | – | – | – |
| CC(=O)c1nccs1 [2-Aceylthiazole] | −1.29 | 57.82 | – | – | – |
| [Cl][Sn][Cl] [Stannous Chloride] | −14.1 | 54.35 | – | – | – |
| Rhodinol 70 Spec 59508 | −9.13 | 87.57 | – | – | – |
| CC(=O)/C(C)=C/C1C(C)=CCCC1(C)C (stereo not drawn) [Gamma Methyl Ionone] | 4.96 | 23.55 | – | – | – |
| Jasmonyl | 7.36 | 68.48 | – | – | – |
| CC(=O)C1(C)CC2=C(CCCC2(C)C)CC1C (stereo not drawn) [ISO E Super] | 11.53 | −0.4 | – | – | – |
| CC(=O)CCc1ccc(O)cc1 [4-P-hydroxyphenyl-2-butanone] | 0.2 | 63.07 | – | – | – |
| CC(C)=CC1CC(C)CCO1 (racemic) [Rose Oxide Racemic] | −6.68 | 80.14 | – | – | – |
| C=C/C(C)=C/C/C=C(\C)CCC=C(C)C [Farmesene] | −0.32 | 90.8 | – | – | – |
| C=C(C)[C@@H]1CCC2=CCC[C@@H](C)[C@]2(C)C1 [Valencene] | 0.1 | 94.99 | – | – | – |
| CC(C)=CCC/C(C)=C/C=O [Lemarome] | 80.13 | 41.41 | – | – | – |
| CC(=O)OCCCc1ccccc1 [Phenyl Propyl Acetate] | −9.54 | 69.3 | – | – | – |
| CCCCCC(C)=O [Heptanone] | −0.04 | 69.5 | – | – | – |
| COc1ccc(CC(C)=O)cc1 [1-(P-Methoxyphenyl)-2-Propanone] | 0.49 | 77.63 | – | – | – |
| C=C(OCC)C1C(C)(C)CC(=O)CC1(C)C [Kephalis] | −0.23 | 83.88 | – | – | – |
| CCC=CCCOC(=O)CC(C)C [3-Hexenyl-3-Methylbutanoate] | −1.61 | 88.62 | – | – | – |
| CCC(C)C=O (stereo not drawn) [2-Methylbutraldehyde] | 81.04 | 35.61 | – | – | – |
| CCOC(=O)C1OC1(C)c1ccccc1 (stereo not drawn) [Ethyl 3-Methyl-3-Phenylglycidate] | 23.6 | 77.42 | – | – | – |
| CC(C)[C@@H]1CC[C@@H](C)CC1=O [L-Menthone] | 4.4 | 70.56 | – | – | – |
| Cc1nc(C)c(C)s1 [,2,4,5-Trimethythiazole] | −1.43 | 64.86 | – | – | – |
| CCOC(=O)C1OC1c1ccccc1 (stereo not drawn) [Ethyl-3-Phenylglycinate] | 12.13 | 54.22 | – | – | – |
| C/C(C=O)=C\c1ccccc1 [Alpha-Methyl-Trans-Cinnamaldehyde] | 37.95 | 72.88 | – | – | – |
| CC(=O)/C=C/C1=C(C)CCCC1(C)C [Beta Ionone] | −2.88 | 75.35 | – | – | – |

| Compound | TRPA1 Direct addition (TRPA1 receptor [1]; [3]) [%] | TRPA1 Pre-incubation (TRPA1 receptor [2]) [%] | activation at 100 µM (TRPA1 receptor [1]; [4]) [%] | activation (TRPA1 receptor [1]; [5]) [%] | further results |
| --- | --- | --- | --- | --- | --- |
| CC(C)C(=O)O [Isobutryic Acid] | 1.15 | 78.64 | – | – | – |
| Roselea Spec 59514 | 14.53 | 71.26 | – | – | – |
| Benzaldehyde Glyceryl Acetal | −2.74 | 30.62 | – | – | – |
| CCOc1cc(C2OCC(C)O2)ccc1O (stereo not drawn) [ethyl vanillin propylene glycol acetal] | 0 | 103.19 | – | – | – |
| Cc1ccc(C=O)cc1 [P-Totylaldehyde] | 11.1 | 60.52 | – | – | – |
| [Cl-].[Cl-].[Zn+2] [Zinc Chloride] | 5.46 | 21.61 | – | – | – |
| C=C[C@](C)(O)CCC=C(C)C [L-Linalool] | −11.37 | 65.28 | – | – | – |
| CCOC(=O)c1ccccc1O [Ethyl Salicylate] | – | – | -0.53 | 106 | – |
| CC=Cc1ccc(OCc2ccccc2)c(OC)c1 [1-Benzyloxy-2-Mehtoxy-4-(1-Propenyl) Benzene] | – | – | – | – | TRPA1 Direct addition (TRPA1 receptor [1]): −3.8%; TRPA1 Pre-incubation (TRPA1 receptor [1]): 30.8% |
| CC(=O)OCC(COC(C)=O)OC(C)=O [Triacetin] | – | – | -17.1 | 79.3 | – |
| CCCCCCCC=O [Octanal] | – | – | -11 | 87.9 | – |
| CCCC=O [Butyraldehyde] | – | – | 28.9 | 66.2 | – |
| CCCCCCCO [Heptyl Alcohol] | – | – | 0.59 | 70.7 | – |
| CC(C)=CCCC(C)C=O (stereo not drawn) [2,6-Dimethyl-5-Heptenal] | – | – | -0.15 | – | activation at 100 µM (TRPA1 receptor [1]; [5]): 97.6% |
| CC1=C(O)C(=O)C(C)O1 (stereo not drawn) [4-Hydroxy-2,5-Dimethyl-3(2H)-Furanone] | – | – | 2.68 | 72 | – |
| C=CC(C)(CCC=C(C)C)OC(C)=O (stereo not drawn) [Linalyl Acetate] | – | – | -0.9 | 77.2 | – |
| C=C1CC/C=C(\C)CC[C@@H]2[C@@H]1CC2(C)C [Beta-Caryophyllene] | – | – | 0.21 | 97.8 | – |
| OCc1ccccc1 [Benzyl Alcohol] | – | – | 21.4 | 14.6 | – |
| CCOCc1ccccc1 [Benzyl Ethyl Ether] | – | – | -2.24 | 66.2 | – |
| CC(=O)OCC=Cc1ccccc1 [Cinnamyl Acetate] | – | – | -0.13 | 70.1 | – |
| CCCCCC=CC=CC(=O)OCCC [Propyl 2,4-Decadienoate] | – | – | -15.7 | 105 | – |
| CC(=O)[O-].CC(=O)[O-].[Zn+2] [Zinc Acetate] | – | – | – | – | TRPA1 Direct addition (TRPA1 receptor [1]): −0.66%; TRPA1 Pre-incubation (TRPA1 receptor [1]): 21.67% |
| CCCCCCCCCCC(=O)O [Undecanoic Acid] | – | – | -14.6 | 24.7 | – |
| COc1ccc(CCC(C)=O)cc1 [4-(4-Methoxyphenyl)-2-Butanone] | – | – | -3.93 | 71.3 | – |

| Compound | TRPA1 Direct addition (TRPA1 receptor [1]; [3]) [%] | TRPA1 Pre-incubation (TRPA1 receptor [2]) [%] | activation at 100 µM (TRPA1 receptor [1]; [4]) [%] | activation (TRPA1 receptor [1]; [5]) [%] | further results |
| --- | --- | --- | --- | --- | --- |
| CCCCCC(=O)OCC(C)C [Isobutyl Hexanoate] | – | – | -17.1 | 53.1 | – |
| CCOC(=O)Cc1ccccc1 [Ethyl Phenylacetate] | – | – | – | – | activation (TRPA1 receptor [1]; HEK293, read-out: TRPA1 Direct addition): -0.28%; activation (TRPA1 receptor [1]; HEK293, read-out: TRPA1 Pre-incubation): 76.2% |
| CCOC(=O)C(C)CC (stereo not drawn) [Ethyl 2-Methylbutyrate] | – | – | 0.26 | 82 | – |
| CC(C)CC(=O)OC1CC2CCC1(C)C2(C)C (stereo not drawn) [Bornyl Isovalerate] | – | – | -1.36 | 72.5 | – |
| CCCC(=O)OC/C=C(\C)CCC=C(C)C [Geranyl Butyrate] | – | – | 0.12 | 61.5 | – |
| CCCCCCO [Hexyl Alcohol] | – | – | -0.22 | 66.2 | – |
| COC(=O)c1ccccc1N [Methyl Anthranilate] | – | – | 69.6 | 1.27 | – |
| CC/C=C\CC1=C(C)CCC1=O [Jasmone] | – | – | 46.5 | 51.6 | – |
| Cc1cnc(C)cn1 [2,5-Dimethylpyrazine] | – | – | -1.08 | 66.8 | – |
| CC/C=C\CCOC(=O)CCCCC [cis-3-Hexenyl Hexanoate] | – | – | 0.08 | 106 | – |
| CCOC(=O)CC(C)C [Ethyl Isovalerate] | – | – | -0.05 | 62.8 | – |
| CCCCCC/C=C/C=O [Trans-2-Nonenal] | – | – | 123 | 23.3 | – |
| CC(C)CCOC(=O)CC(C)C [Isoamyl Isovalerate] | – | – | 0.18 | 59.6 | – |
| CCCC/C=C/C=O [trans-2-Heptenal] | – | – | 95.9 | -3.74 | – |
| CCC(C)C1CCCCC1=O (stereo not drawn) [2-sec-Butylcyclohexanon] | – | – | -1.47 | 63.7 | – |
| COc1cc(C)ccc1C(C)C [thymyl methyl ether] | – | – | -0.16 | 108 | – |
| CC(CC=O)CC(C)(C)C (stereo not drawn) [3,5,5-Trimethyl Hexanal] | – | – | 75.7 | 92.2 | – |
| CCCCCCCCCCO [Material 1-Decanol, 1-Decanol] | – | – | -1.41 | 59.8 | – |
| CCCCCO [Amyl Alcohol] | – | – | -1.94 | 85.9 | – |
| CCCCCCOC(=O)CC [Hexyl Propionate] | – | – | -15.9 | 78.9 | – |
| COC(C=C(C)CCC=C(C)C)OC [Citral Dimethyl Acetal] | – | – | 0.16 | 78 | – |
| O=CC=Cc1ccccc1 [Cinnamaldehyde] | – | – | 114 | -1.2 | – |
| CC1=C(CC=O)C(C)(C)CCC1 [2,6,6-Trimethyl-1-cyclohexene-1-acetaldehyde] | – | – | -0.32 | 106 | – |
| CC(C)c1ccc(C=O)cc1 [Cuminaldehyde] | – | – | 25.6 | 72.9 | – |
